In patent US12398111B2, “Triazine compounds and pharmaceutical use thereof” (Japan Tobacco Inc., priority 2014, dated 2025):

These compounds were tested against T1, human mPGES-1 (Homo sapiens, UniProt O14684) (assay: Evaluation of human mPGES-1 enzyme inhibitory activity (PGE2 measured by HTRF, microsome fraction of CHO-S cells expressing human mPGES-1)). Settings: IC50 value; microsome fraction of CHO-S cells expressing human mPGES-1, PGE2 by HTRF.
T1 construct: made in house; host or cells: FreeStyle CHO-S cells (Chinese hamster ovary), transient transfection with pcDNA3.1(+)/human mPGES-1; microsome fraction used
T1 sequence (O14684 1-152): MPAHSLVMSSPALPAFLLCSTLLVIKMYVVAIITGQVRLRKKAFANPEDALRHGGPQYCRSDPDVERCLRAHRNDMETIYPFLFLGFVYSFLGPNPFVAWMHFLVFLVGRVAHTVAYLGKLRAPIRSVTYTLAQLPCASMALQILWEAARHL
Assay type: biochemical
Procedure, shortened: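 Enzyme source: microsomes from CHO-S cells transfected with human mPGES-1 and cultured 48 hr, diluted to 5 μg/mL protein in reduced GSH (12.5 mmol/L KPB solution). Test articles were in 0.1 mol/L potassium phosphate pH 7.4, final DMSO 2% (v/v). PGE2 formed was quantified by HTRF.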

Structure (SMILES) | IC50 [nM]
COc1c(C)ccc(Cl)c1-c1nc(O)nc(-c2ccc(C(F)(F)F)cc2)n1 [Example 3-3] | 141
CCO[C@@](C)(C(=O)N(C)Cc1ccc(Cl)c(-c2nc(O)nc(-c3ccccc3)n2)c1)C(F)(F)F [Example 1-253] | 791
CC(=O)N(C)Cc1ccc(Cl)c(-c2nc(O)nc(-c3ccc(C(F)(F)F)cc3)n2)c1 [Example 1-21] | 988
Cc1ccc(Cl)c(-c2nc(O)nc(-c3ccc(C(F)(F)F)cc3)n2)c1OCCO [Example 3-9] | 776
Cc1cccc(C)c1-c1nc(O)nc(-c2ccc(OCC(C)(C)C)cc2)n1 [Example 2-58] | 145
COc1ccc(Cl)c(-c2nc(O)nc(-c3ccc(C(F)(F)F)cc3)n2)c1 [Example 1-6] | 163
Cc1cccc(C)c1-c1nc(O)nc(-c2ccc(O[C@H](C)c3ccccc3)cc2)n1 [Example 2-44] | 563
CO[C@@](C)(C(=O)N(C)Cc1ccc(Cl)c(-c2nc(O)nc(-c3ccccc3)n2)c1)C(F)(F)F [Example 1-243] | 120
COc1cccc(Cl)c1-c1nc(O)nc(-c2ccc(OCc3ccccc3)cc2)n1 [Example 2-35] | 17
CCOc1cc(-c2nc(O)nc(-c3c(C)cccc3C)n2)ccc1Cl [Example 2-52] | 100
Cc1cccc(C)c1-c1nc(O)nc(-c2ccc(OC3CCC(C)(C)CC3)cc2)n1 [Example 2-47] | 295
CCOc1ccc(-c2nc(O)nc(-c3c(C)cccc3C)n2)cc1 [Example 2-40] | 1300
OCCCOc1cccc(Cl)c1-c1nc(O)nc(-c2ccc(C(F)(F)F)cc2)n1 [Example 2-23] | 155
Cc1ccc(-c2nc(O)nc(-c3c(C)cccc3C)n2)cc1 [Example 2-26] | 2700
Cc1cccc(C)c1-c1nc(O)nc(-c2ccc(OCC3CC3)cc2)n1 [Example 2-74] | 424
CCCC(CO)(CCC)C(=O)NCc1ccc(Cl)c(-c2nc(O)nc(-c3ccccc3)n2)c1 [Example 1-259] | 176
CC(C)COc1cccc(Cl)c1-c1nc(O)nc(-c2ccc(C(F)(F)F)cc2)n1 [Example 2-33] | 102
CN(Cc1ccc(Cl)c(-c2nc(O)nc(-c3ccc(OCC(C)(C)C)cc3)n2)c1)S(=O)(=O)C(C)(C)C [Example 1-223] | 7
Cc1cccc(C)c1-c1nc(O)nc(-c2ccc(OCCC(C)C)cc2)n1 [Example 2-71] | 172
Cc1cc(Cl)c(-c2nc(O)nc(-c3ccc(OCC4CC4)cc3)n2)cc1C(=O)N(C)C [Example 3-22] | 6900

Structure (SMILES) | IC50 [nM]
C[C@H](Oc1cccc(Cl)c1-c1nc(O)nc(-c2ccc(OCC(C)(C)C)cc2)n1)c1ccccn1 [Example 2-64] | 12
Oc1nc(-c2ccc(C#Cc3ccccc3)cc2)nc(-c2c(OCc3cc(C(F)(F)F)ccn3)cccc2C(F)(F)F)n1 [Example 2-122] | 15
CC1(C(=O)NCc2ccc(Cl)c(-c3nc(O)nc(-c4ccccc4)n3)c2)Cc2ccccc2C1 [Example 1-262] | 7
CC(O)Cc1ccc(Cl)c(-c2nc(O)nc(-c3ccc(OCC(C)(C)C)cc3)n2)c1 (centres unmarked) [Example 1-216] | 39
CN(C)C(=O)OCc1ccc(Cl)c(-c2nc(O)nc(-c3ccc(OCC4CC4)cc3)n2)c1 [Example 1-190] | 47
CCC1(CC)CN(Cc2ccc(Cl)c(-c3nc(O)nc(-c4ccccc4)n3)c2)C1=O [Example 1-251] | 18
CCCCOc1ccc(-c2nc(O)nc(-c3c(C)cccc3C)n2)cc1 [Example 2-70] | 158
CCCCNC(=O)c1cc(-c2nc(O)nc(-c3ccc(OCC4CC4)cc3)n2)c(Cl)cc1C [Example 3-23] | 41
Cc1ccc(Cl)cc1-c1nc(O)nc(-c2ccc(C(F)(F)F)cc2)n1 [Example 1-3] | 164
C[C@H](Oc1cccc(Cl)c1-c1nc(O)nc(-c2ccc(OCC(C)(C)C)cc2)n1)c1ccccc1 [Example 2-65] | 151
CC(C)CCOc1ccc(-c2nc(O)nc(-c3cc(CNC(=O)C(C)(C)C(F)(F)F)ccc3Cl)n2)cc1 [Example 1-114] | 5.9
Cc1cccc(C)c1-c1nc(O)nc(-c2ccc(OC(C)C)cc2)n1 [Example 2-38] | 1000
CC1(C)CCC(Oc2ccc(-c3nc(O)nc(-c4c(Cl)cccc4OCc4ccccn4)n3)cc2)CC1 [Example 2-84] | 17
CC(C)Cc1ccc(-c2nc(O)nc(-c3cc(CC(=O)N(C)C(C)(C)C)ccc3Cl)n2)cc1 [Example 1-232] | 521
Oc1nc(-c2ccc(C(F)(F)F)cc2)nc(-c2c(Cl)cccc2OCC(F)(F)F)n1 [Example 2-36] | 53
CCO[C@](C)(C(=O)NCc1ccc(Cl)c(-c2nc(O)nc(-c3ccccc3)n2)c1)C(F)(F)F [Example 1-96] | 81
Cc1cc(C)c(-c2nc(O)nc(-c3ccc(C(F)(F)F)cc3)n2)c(C)c1 [Example 3-1] | 484
CC(C)(C)COc1ccc(-c2nc(O)nc(-c3cc(CCNC(=O)C(C)(C)C(F)(F)F)ccc3Cl)n2)cc1 [Example 1-203] | 20
Cc1cccc(C)c1-c1nc(O)nc(-c2ccc(C(F)(F)F)cc2)n1 [Example 2-1] | 283
COc1ccc(-c2nc(O)nc(-c3c(C)cccc3C)n2)cc1 [Example 2-27] | 7700

These reach a lower IC50. Values come first.

IC50 [nM] | Structure (SMILES)
5.1 | Cc1ccnc(COc2cccc(C(F)(F)F)c2-c2nc(O)nc(-c3ccc(C#Cc4ccccc4)cc3)n2)c1 [Example 2-113]
5 | Oc1nc(-c2ccc(C#Cc3ccccc3)c(F)c2)nc(-c2c(OCc3ccccn3)cccc2C(F)(F)F)n1 [Example 2-106]
4.9 | Cc1ccc(COc2cccc(C(F)(F)F)c2-c2nc(O)nc(-c3ccc(C#Cc4ccccc4)cc3)n2)nc1 [Example 2-114]
2.3 | CO[C@](C)(C(=O)NCc1ccc(Cl)c(-c2nc(O)nc(-c3ccc(OCC(C)C)cc3)n2)c1)C(F)(F)F [Example 1-123]
2.1 | CC1(C)CC(C(=O)NCc2ccc(Cl)c(-c3nc(O)nc(-c4ccc(OCC5CC5)cc4)n3)c2)C1 [Example 1-168]
1.8 | Cc1cc(-c2nc(O)nc(-c3cc(CNC(=O)C(C)(C)C(F)(F)F)ccc3Cl)n2)cc(C)c1OCC1CC1 [Example 1-176]
1.8 | Oc1cccc(COc2cccc(C(F)(F)F)c2-c2nc(O)nc(-c3ccc(C#Cc4ccccc4)cc3)n2)n1 [Example 2-119]
1.5 | O=C(NCc1ccc(Cl)c(-c2nc(O)nc(-c3ccc(OCC4CC4)cc3)n2)c1)C1CCC(F)(F)CC1 [Example 1-170]
1.4 | Cc1cc(-c2nc(O)nc(-c3cc(CNC(=O)C(C)(C)C(F)(F)F)ccc3Cl)n2)ccc1F [Example 1-186]
1.3 | Cc1cc(-c2nc(O)nc(-c3cc(CNC(=O)C(C)(C)CC(F)(F)F)ccc3Cl)n2)ccc1F [Example 1-183]
1.2 | CC(C)COc1cccc(-c2nc(O)nc(-c3cc(CNC(=O)C(C)(C)C(F)(F)F)ccc3Cl)n2)c1 [Example 1-88]
1.2 | CO[C@](C)(C(=O)NCc1ccc(Cl)c(-c2nc(O)nc(-c3ccc(OCC4CC4)cc3)n2)c1)C(F)(F)F [Example 1-162]
1.1 | O=C(NCc1ccc(Cl)c(-c2nc(O)nc(-c3ccc(C(F)(F)F)cc3)n2)c1)C1CCCCC1 [Example 1-29]
1.1 | CC(C)(C(=O)NCc1ccc(Cl)c(-c2nc(O)nc(-c3ccc(OC4CCC4)cc3)n2)c1)C(F)(F)F [Example 1-141]
1 | CCOc1cccc(-c2nc(O)nc(-c3cc(CNC(=O)C(C)(C)C)ccc3Cl)n2)c1 [Example 1-62]
1 | CC(F)(F)c1ccc(-c2nc(O)nc(-c3cc(CNC(=O)C(C)(C)C(F)(F)F)ccc3Cl)n2)cc1 [Example 1-119]

IC50 [nM] | Structure (SMILES)
1 | O=C(NCc1ccc(Cl)c(-c2nc(O)nc(-c3ccc(OCC4CC4)cc3)n2)c1)C1(C(F)(F)F)CC1 [Example 1-163]
1 | O=S(=O)(NCc1ccc(Cl)c(-c2nc(O)nc(-c3ccc(C(F)(F)F)cc3)n2)c1)C1CCCC1 [Example 1-42]
1 | CCC(=O)NCc1ccc(Cl)c(-c2nc(O)nc(-c3ccc(C(F)(F)F)cc3)n2)c1 [Example 1-27]
0.9 | Cc1cc(-c2nc(O)nc(-c3cc(CNC(=O)C(C)(C)C(F)(F)F)ccc3Cl)n2)ccc1Cl [Example 1-112]
0.9 | CC(C)(C(=O)NCc1ccc(Cl)c(-c2nc(O)nc(-c3cccc(C4CCC4)c3)n2)c1)C(F)(F)F [Example 1-100]
0.9 | CCCc1cccc(-c2nc(O)nc(-c3cc(CNC(=O)C(C)(C)C(F)(F)F)ccc3Cl)n2)c1 [Example 1-102]
0.8 | CC(C)CC(=O)NCc1ccc(Cl)c(-c2nc(O)nc(-c3ccc(C(F)(F)F)cc3)n2)c1 [Example 1-37]
0.8 | CC(C)Oc1ccc(-c2nc(O)nc(-c3cc(CNC(=O)C(C)(C)C)ccc3Cl)n2)cc1 [Example 1-82]
0.8 | CC(C)S(=O)(=O)NCc1ccc(Cl)c(-c2nc(O)nc(-c3ccc(C(F)(F)F)cc3)n2)c1 [Example 1-33]
0.7 | CC(C)(C(=O)NCc1ccc(Cl)c(-c2nc(O)nc(-c3cccc(C4CC4)c3)n2)c1)C(F)(F)F [Example 1-159]
0.6 | CC1(C(=O)NCc2ccc(Cl)c(-c3nc(O)nc(-c4ccccc4)n3)c2)CCCCC1 [Example 1-52]
0.5 | CCCOc1ccc(-c2nc(O)nc(-c3cc(CNC(=O)C4(C(F)(F)F)CC4)ccc3Cl)n2)cc1 [Example 1-154]
0.5 | CCC1(COc2ccc(-c3nc(O)nc(-c4cc(CNC(=O)C(C)(C)C(F)(F)F)ccc4Cl)n3)cc2)COC1 [Example 1-145]
0.5 | CCC(CC)C(=O)NCc1ccc(Cl)c(-c2nc(O)nc(-c3ccc(OCC4CC4)cc3)n2)c1 [Example 1-171]
0.3 | CCOc1ccc(-c2nc(O)nc(-c3cc(CNC(=O)C(C)(C)C(F)(F)F)ccc3Cl)n2)cc1 [Example 1-132]
